Laboratory results reported in patent US8217006B2, “Inhibiting GS-FDH to modulate no bioactivity” (Duke University, priority 2001, dated 2012).

Key:
wild-type Y190 cells = assay: Growth of wild-type yeast treated with GSNO; assay type: cell-based; conditions: same concentrations as for the mutants
[1] = tested on: human monocyte THP-1 cells; assay: GSNO metabolizing activity of THP-1 cell lysate (Saville assay); assay type: biochemical; conditions: THP-1 lysate 4 μg/ml, 200 μM GSNO, 37° C., 5 minutes
Protocol: (§1) The cells were from cell lines obtained from the ATCC. Cells were homogenized by sonication in a solution containing 20 mM Tris-HCl (pH 8.0), 0.5 mM EDTA, 0.1% NP-40 and 1 mM phenylmethylsulfonyl fluoride (PMSF). […] After precipitation of the reaction mixtures with trichloroacetic acid (8.3% final concentration), the supernatants were diluted threefold in the buffer and nitrosothiol levels in the reaction mixture were measured by the Saville assay as described in Stamler, J. S., Science 276, 2034 (1997). Data are the mean of two independent experiments.

[2] = tested on: human epithelial A549 cells; assay: GSNO metabolizing activity of A549 cell lysate (Saville assay); assay type: biochemical; conditions: A549 lysate 4 μg/ml, 200 μM GSNO, 37° C., 5 minutes
Protocol: as §1

sfa1 mutant cells = assay: Growth of GS-FDH-deficient yeast under nitrosative or oxidative stress; assay type: cell-based
Description: Genet. 237, 351 (1993) (SFA1/YDL168w) was replaced with dominant selectable cassettes Kan 2 (resistant to G418) or hphMX (resistant to hydromycin) by direct targeting as described in Wach, A., et al., Yeast 10, 1793 (1994). KanMX2 is described in Wach, A. et al., Yeast 10, 1793 (1994). hphMX is described in Goldstein and MeCuskler, Yeast 15, 1541 (1991).

[3] = GSNO decomposition in reaction buffer, no lysate (Saville assay); assay type: biochemical; conditions: 200 μM GSNO, 37° C., 5 minutes
Protocol: After precipitation of the reaction mixtures with trichloroacetic acid (8.3% final concentration), the supernatants were diluted threefold in the buffer and nitrosothiol levels in the reaction mixture were measured by the Saville assay as described in Stamler, J. S., Science 276, 2034 (1997). Data are the mean of two independent experiments.

cystic fibrosis = assay: Example II: patient with cystic fibrosis; assay type: in vivo, human; conditions: inhaled S-nitrosoglutathione (10 mM in 3 cc) in combination with D-glutathione (3 mM in 10 cc); over the following day
Description: A person with cystic fibrosis presents to the Emergency Room with difficulty breathing and a fever.

human HeLa cells = assay: GSNO metabolizing activity of HeLa cell lysate (Saville assay); assay type: biochemical; conditions: HeLa lysate 4 μg/ml, 200 μM GSNO, 37° C., 5 minutes
Protocol: as §1

[4] = tested on: injured mouse liver cells deficient in GS-FDH; assay: Survival of GS-FDH-deficient cells from cytokine-injured mouse liver treated with NO synthase inhibitor; assay type: cell-based; conditions: same cells but deficient in GS-FDH; 1 millimolar
Protocol: (§2) Hepatocytes of wild-type mice and their GS-FDH^−/− littermates were harvested after perfusion of the livers with Liberase (Roche), and purified by repeated differential sedimentation at 50×g, followed by centrifugation over a 30% Percoll solution. […] The cells were then cultured in the presence of recombinant mouse tumor necrosis factor-α (500 units/ml), interferon-gamma (100 units/ml), interleuken-1β (200 units/ml) and lipopolysaccharide (LPS, 10 μg/ml; E. coli 0128:B12; Sigma) for 14 and 40 hours. Nitrosylation levels in hepatocytes were measured as described in Eu, J., et al., Biochemistry 39, 1040-1047 (2000). […] See Liu, L. and Stamler, J. S., Cell Death and Differentiation 6, 937-942 (1999).

[5] = tested on: Cells from an injured mouse liver; assay: Survival of cells from cytokine-injured mouse liver treated with NO synthase inhibitor; assay type: cell-based; conditions: 1 millimolar
Protocol: as §2

chronic psoriasis = assay: Example XI: patient with chronic psoriasis; assay type: in vivo, human; conditions: topical paste, 5% with acetylsalicylic acid 2%, 8 hours a day, two weeks
Protocol: A person with chronic psoriasis presents at the dermatologist. A paste comprised of acetylsalicylic acid, 2%, combined with 5% ribavirin was applied topically for 8 hours a day.

pulmonary embolism = assay: Example IX: patient with pulmonary embolism; assay type: in vivo, human; conditions: inhaled, 6 grams in 300 cc, aerosol, 12 hours/day for three days
Protocol: A person presents with shortness of breath and hemoptysis. […] Treatment is carried out for 12 hours/day for three days.

ringworm = assay: Example XVI: ringworm; assay type: in vivo, human; conditions: topical ointment 5%, daily for a week
tumors = conditions: previous use; cited from earlier work
intractable angina = assay: Example VIII: patient with intractable angina; assay type: in vivo, human; conditions: 6 grams injected at 20 milligrams per milliliter, daily for seven days; by six weeks
Protocol: A person with intractable angina is administered ribavirn as 6 grams diluted to a final volume of 300 cc in sterile water and injected at a final concentration of 20 milligrams per milliliter, given daily for seven days.

mouse GS-FDH = target: T1, mouse GS-FDH (Mus musculus, UniProt P28474); assay: Kinetic analysis of purified GSNO reductase (GS-FDH) from RAW 264.7 cells; assay type: biochemical; conditions: purified protein
T1 construct: GSNO-metabolizing activity of RAW 264.7 cells was recovered in a single function following anion exchange on a MonoQ column; endogenous in cells; host or cells: RAW 264.7 mouse macrophages (ATCC); purified by ammonium sulfate precipitation, MonoQ and 5' AMP Sepharose 4B
T1 sequence (P28474 whole entry): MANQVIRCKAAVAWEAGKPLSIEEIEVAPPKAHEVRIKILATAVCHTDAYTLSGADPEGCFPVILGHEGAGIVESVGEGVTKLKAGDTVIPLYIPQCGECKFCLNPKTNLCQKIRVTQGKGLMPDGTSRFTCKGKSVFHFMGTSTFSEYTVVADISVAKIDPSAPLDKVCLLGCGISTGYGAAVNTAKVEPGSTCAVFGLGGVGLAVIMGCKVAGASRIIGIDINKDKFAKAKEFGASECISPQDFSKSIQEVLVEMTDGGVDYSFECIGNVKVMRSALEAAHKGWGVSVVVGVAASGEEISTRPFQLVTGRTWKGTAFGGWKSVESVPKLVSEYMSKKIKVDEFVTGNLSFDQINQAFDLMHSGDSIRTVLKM
Protocol: Cells were homogenized by sonication in a solution containing 20 mM Tris-HCl (pH 8.0), 0.5 mM EDTA, 0.1% NP-40 and 1 mM phenylmethylsulfonyl (PMSF).
Further purification over a 5′ AMP Sepharose column yielded a single band of about 43 kDa in a silver-stained SDS-PAGE gel. […] After dialysis against 20 mM Tris-HCl (pH 8.0), the proteins were fractionated on a MonoQ column with increasing concentrations of NaCl. […] SDS-PAGE and Coomassie blue staining gave the single band of about 43 kDa.
The purified protein was digested by trypsin and the resulting peptides were analyzed by mass spectrometry. Peptide mass database search with GPMAW program identified the protein as mouse GS-FDH(SP-P28474) with high scores, matching 8 fragments (42% coverage) to mouse GS-FDH.

[6] = tested on: 90% lesion of the left anterior descending coronary artery; conditions: 600 mg P.O. three times a day for a month
Description: A person has a stent placed for 90% lesion of the left anterior descending coronary artery.

wheezing = conditions: intravenous infusion 50 mg/kg Q.6 hours; person
unstable angina = conditions: intravenous infusion 100 mg per kg Q6 hours; on betablockers and nitrates
Description: A person status post CABG×2 presents with unstable angina.

severe heart failure = conditions: infusion 1 gram TED for 10 days
Description: A person with acute viral myocarditis develops severe heart failure. […] They are placed on the transplant list.

pinworm = conditions: 1 gram daily for three days
malignant hypertension = assay: Example XXVIII: heart failure and malignant hypertension; assay type: in vivo, human
Description: A person presents with heart failure and malignant hypertension.

liver function = conditions: infusion 200 milligrams per kilogram every 6 hours; over the following week
Description: A child presents to the Emergency Room having ingested a toxic dose of Tylenol. […] This is an example of treating a patient for a disease where there is risk of apoptosis occurring.

[7] = tested on: swollen abdomen and elevated LSTs; conditions: infusion 200 milligrams per kilogram every 6 hours for two weeks
blood pressure = conditions: 600 milligrams BID; three weeks later; 160/90 before
Description: A person presents to their primary care physician.

squamous cell cancer = conditions: intravenously 200 milligrams per kilogram four times a day; stage 3B before
viral pneumonia = conditions: inhaled, 3 mM/3 cc normal saline four times a day
Description: A person status post lung transplant is admitted to the hospital with viral pneumonia.

angina = assay: Example XXVII: angina treated with nitroglycerine and GS-FDH inhibitor; assay type: in vivo, human; conditions: 600 mg TIE, concomitantly with nitroglycerine
Hodgkins disease = conditions: 1 gram three times a day for a month
Description: A person has a biopsy done on an axillary node which establishes the diagnosis of Hodgkins disease.

atherosclerosis = conditions: 600 mg TID for a week
ARDS = conditions: inhaled 10 mM in 3 cc normal saline; from 60 mm Hg on 100% oxygen; over 1 hour
Description: A person develops ARDS as a complication of urosepsis. They are intubated and transferred to the Intensive Care Unit.

[8] = tested on: benign prostatic hypertrophy; conditions: 600 mg three times a day; over three months
impotence = assay: Example XIII: diabetic patient with impotence; assay type: in vivo, human
Description: A diabetic with a history of impotence presents to their urologist. […] Their physician adds topical mycophenolic acid (5% paste) with good results.

restenosis = assay: Example X: restenosis post-angioplasty, drug-coated stent; assay type: in vivo, human; conditions: Nir stent coated with drug, 30% per polymer
Description: The patient was discharged the following day, and did well.

N[C@@H](CCC(=O)N[C@@H](CSN=O)C(=O)NCC(=O)O)C(=O)O [GSNO, S-nitrosoglutathione]
Growth of cells (wild-type Y190 cells): little effect
GSNO metabolizing activity ([1]; +NADH): 90.8%
GSNO metabolizing activity ([1]; +NADPH + GSH + ASA): 22.6%
GSNO metabolizing activity ([1]; Buffer only): 18.8%
GSNO metabolizing activity ([2]; +NADH): 72.3%
GSNO metabolizing activity ([2]; +NADPH + GSH + ASA): 43.9%
GSNO metabolizing activity ([2]; Buffer only): 14.7%
Growth of cells (sfa1 mutant cells; sfa1 mutant cells (G418^r and hygromicin^r clones)): markedly inhibited
GSNO metabolizing activity ([3]; +NADH): 0.0%
GSNO metabolizing activity ([3]; +NADPH + GSH + ASA): 0.7%
GSNO metabolizing activity ([3]; Buffer only): 6.2%
symptoms (difficulty breathing, fever) (cystic fibrosis): symptoms resolve
GSNO metabolizing activity (human HeLa cells; +NADH): 84.2%
GSNO metabolizing activity (human HeLa cells; +NADPH + GSH + ASA): 35.4%
GSNO metabolizing activity (human HeLa cells; Buffer only): 29.9%

CNC(=N)NCCC[C@H](N)C(=O)O [N^G-methyl-L-arginine]
cell death [4]: died to a lesser extent
nitric oxide synthase activity left [5]: 20%
cell death ([5]; liver injured by cytokine administration): found to die

NC(=O)c1ncn([C@@H]2O[C@H](CO)[C@@H](O)[C@H]2O)n1 [ribavirin]
psoriatic lesion (chronic psoriasis): psoriatic lesion had resolved
symptoms (shortness of breath, hemoptysis) (pulmonary embolism): improvement in symptoms
skin lesion (ringworm): skin lesion resolve
activity as antitumor agent (tumors): inactive
angina (intractable angina): angina had improved

N[C@@H](CCC(=O)N[C@@H](CSCO)C(=O)NCC(=O)O)C(=O)O [S-hydroxymethylglutathione]
specific activity for oxidation, as share of the GSNO reducing activity (mouse GS-FDH): about 6%

N[C@H](CCC(=O)N[C@H](CS)C(=O)NCC(=O)O)C(=O)O [D-glutathione]
course after stent placement [6]: does well
breathing (wheezing): breathing improves
symptoms (chest pain) (unstable angina): relief of their symptoms
clinical course (severe heart failure): stabilized their deteriorating course
signs and symptoms (pinworm): signs and symptom resolve
Blood pressure, systolic (malignant hypertension; 600 mg TID coadministered with nitroprusside, from 200): 160
liver function (liver function): gradual normalization of liver function
swelling and LSTs [7]: swelling and elevated LSTs are reduced
blood pressure (blood pressure): 140/80
tumor stage on restaging (squamous cell cancer): 3A
symptoms of cough and shortness of breath (viral pneumonia): resolution of symptoms of cough and shortness of breath
symptoms (chest pain) (angina): total relief of symptoms
adenopathy (Hodgkins disease): resolution of adenopathy
response to acetylcholine (atherosclerosis): improved response to acetylcholine
symptoms (difficulty breathing, fever) (cystic fibrosis): symptoms resolve
PO2 (ARDS): 80 mm/Hg
symptoms (urinary frequency and hesitancy) [8]: symptoms gradually resolve

nitroprusside
Blood pressure, systolic (malignant hypertension; nitroprusside alone, 1.0 μg/kg/min IV infusion for 10 minutes, from 240): 200

CCCc1nn(C)c2c(=O)[nH]c(-c3cc(S(=O)(=O)N4CCN(C)CC4)ccc3OCC)nc12 [Viagra]
impotence (impotence; Viagra alone): no improvement

NC(=O)c1coc([C@@H]2O[C@H](CO)[C@@H](O)[C@H]2O)c1 [furanfurin, 5-β-D-ribofuranosylfuran-3-carboxamide]
activity as antitumor agent (tumors): inactive

COc1c(C)c2c(c(O)c1C/C=C(\C)CCC(=O)O)C(=O)OC2 [mycophenolic acid]
outcome of stent deployment (restenosis): successful results
impotence (impotence; topical 5% paste added to Viagra): good results

OO [Compound H2O2, H2O2]
sensitivity to the toxic effects, mutant versus wild-type Y190 cells (sfa1 mutant cells; sfa1 mutant cells): no more sensitive
